Assay results taken from paper PMC4459825, “ATP Binding and Hydrolysis Properties of ABCB10 and Their Regulation by Glutathione” (PLoS ONE, 2015).

Legend:
ABCB10 (ABCB10-V5) [1] = biological target: T1, ABCB10 (ABCB10-V5) (Mus musculus, UniProt Q9JI39); test: competition with 8-azido-ATP [γ] biotin photolabelling in SMPs, anti-V5 IP; conditions: 50 μM 8-azido-ATP [γ] biotin, 3 mM MgCl2, pH 7.5, on ice; nucleotide binding domain, competitive
T1 construct: full-length cDNA in pEF1alpha-V5-His (V5-His tagged), overexpressed in HEK293; detected at approx. 65 kD; assayed in sub-mitochondrial particles, then anti-V5 immunoprecipitated
T1 sequence (Q9JI39 83-715): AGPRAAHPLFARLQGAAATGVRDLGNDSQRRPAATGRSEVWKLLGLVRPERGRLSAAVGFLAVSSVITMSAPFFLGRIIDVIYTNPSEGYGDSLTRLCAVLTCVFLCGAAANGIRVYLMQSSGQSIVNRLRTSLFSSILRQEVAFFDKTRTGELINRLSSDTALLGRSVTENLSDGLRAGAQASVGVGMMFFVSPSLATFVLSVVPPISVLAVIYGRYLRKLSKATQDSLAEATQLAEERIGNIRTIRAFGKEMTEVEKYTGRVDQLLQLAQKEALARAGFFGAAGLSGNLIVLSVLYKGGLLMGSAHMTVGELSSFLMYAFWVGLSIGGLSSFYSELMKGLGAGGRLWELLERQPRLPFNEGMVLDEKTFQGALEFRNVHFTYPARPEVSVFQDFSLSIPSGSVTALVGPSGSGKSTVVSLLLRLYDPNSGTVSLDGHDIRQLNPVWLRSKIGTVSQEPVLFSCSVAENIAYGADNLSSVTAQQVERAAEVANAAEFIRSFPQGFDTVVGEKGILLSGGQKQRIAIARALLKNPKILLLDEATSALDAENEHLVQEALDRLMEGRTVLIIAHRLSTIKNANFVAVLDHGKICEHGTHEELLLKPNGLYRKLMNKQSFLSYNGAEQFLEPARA

ABCB10 (ABCB10-V5) [2] = biological target: T1, ABCB10 (ABCB10-V5); test: UV photolabelling of SMPs, anti-V5 IP, ExtrAvidin-HRP blot; conditions: 3 mM MgCl2, pH 7.5, on ice; covalent after UV irradiation; labelled compound; net of binding and hydrolysis

Row | Km (ABCB10 (ABCB10-V5) [2]) [µM] | Compound | competition with 8-azido-ATP [γ] biotin photolabelling in SMPs, anti-V5 IP (ABCB10 (ABCB10-V5) [1])
1 | – | Cc1cn([C@H]2C[C@H](O)[C@@H](COP(=O)(O)OP(=O)(O)OP(=O)(O)O)O2)c(=O)[nH]c1=O [TTP] | GTP, CTP and TTP could compete with ATP, but their effect was milder
2 | 128 | 8-azido-ATP [γ] biotin | –
3 | – | Nc1ncnc2c1ncn2[C@@H]1O[C@H](COP(=O)(O)OP(=O)(O)OP(=O)(O)O)[C@@H](O)[C@H]1O [ATP] | Increasing concentrations of unlabeled ATP decreased 8-azido-ATP [γ] biotin photolabeling
4 | – | Nc1nc2c(ncn2[C@@H]2O[C@H](COP(=O)(O)OP(=O)(O)OP(=O)(O)O)[C@@H](O)[C@H]2O)c(=O)[nH]1 [GTP] | GTP, CTP and TTP could compete with ATP, but their effect was milder
5 | – | Nc1ccn([C@@H]2O[C@H](COP(=O)(O)OP(=O)(O)OP(=O)(O)O)[C@@H](O)[C@H]2O)c(=O)n1 [CTP] | GTP, CTP and TTP could compete with ATP, but their effect was milder
